Earlier results in patent US8309607B2, “Rapid release irbesartan-containing pharmaceutical composition” (ratiopharm GmbH, priority 2006, dated 2012).

Settings: in vivo

CCCCC1=NC2(CCCC2)C(=O)N1Cc1ccc(-c2ccccc2-c2nnn[nH]2)cc1 [Irbesartan, 2-n-butyl-4-spirocyclopentane-1-[(2′-(tetrazol-5-yl)biphenyl-4-yl)methyl]-2-imidazolin-5-one]
oral bioavailability: acceptable oral bioavailability
